This note sets out measurements from US20180369186A1, “METHOD FOR MODULATING AUTOPHAGY AND APPLICATIONS THEREOF” (JAWAHARLAL NEHRU CENTRE FOR ADVANCED SCIENTIFIC RESEARCH, priority 2015, published 2018).

Several values for one entry are separate records, joined by “and”; a condition that tells them apart may be missing. Equal values may be shown once.

The subject of one data set is α-synuclein toxicity. As to the kind of experiment: S. cerevisiae α-synuclein toxicity model, growth assay. Format: cell-based. As to conditions: WT α-synuclein-EGFP strain; 50 μM. On the procedure: To screen small molecule library LOPAC1280 in S. cerevisiae SNCA toxicity model, working plates containing 50 μM drugs in 1.5% DMSO (190 compounds/plate) are prepared in a 384 well format. WT SNCA-GFP with or without small molecules and untreated WT GFP are grown under optimized conditions (80 μl, 30° C. and 420 rpm) for 36 h in a plate reader (Varioskan Flash, Thermo Scientific) in duplicates with automatic absorbance (A600) recording every 20 min. Growth curves of untreated WT GFP and WT SNCA-GFP strains are plotted and mid to late exponential phase time point of untreated WT GFP strain is chosen as reference for data analysis. Its corresponding time point of untreated and drug treated WT SNCA-GFP strains are plotted separately in a box plot. Small molecules that rescued the growth lag by ≥3 SD units of untreated WT SNCA-GFP strain are considered as ‘Hits’.
Growth assays: In a 384 well plate, appropriate yeast strains are seeded (A600˜0.07) with and without drugs and incubated (80 μl, 30° C. and 420 rpm) in a multiplate reader (Varioskan Flash, Thermo Scientific) for 48 h with automatic absorbance (A600) recording every 20 min. Growth curves are plotted and analyzed using GraphPad Prism.
Induction of α-synuclein-EGFP aggregates: To induce α-synuclein-EGFP aggregates, the corresponding strains are inoculated in SD-Ura medium, Secondary culture is inoculated from primary inoculum and incubated till A600 reaches 0.8/ml. Cells are washed twice with sterile water and aggregates are induced by adding SG-Ura for 12-16 h.
To screen small molecule library LOPAC^1280 in S. cerevisiae α-synuclein toxicity model, working plates containing 50 μM drugs (small molecule) in 1.5% DMSO (190 compounds/plate) are prepared in a 384 well format. WT α-synuclein-EGFP with and without small molecules and untreated WT EGFP are grown under optimized conditions (80 μl, 30° C. and 420 rpm) for 36 h in a plate reader (Varioskan Flash, Thermo Scientific) in duplicates with automatic absorbance (A600) recording every 20 min.
Growth curves of untreated WT EGFP and WI α-synuclein-EGFP strains are plotted and mid to late exponential phase time point of untreated WT EGFP strain is chosen as reference for data analysis. Its corresponding time point of untreated and drug treated WT α-synuclein-EGFP strains are plotted separately in a box plot.
Appropriate yeast strains are seeded (A600 ˜0.07) with or without drugs in a 384-well plate and incubated (420 rpm, 30° C. and 80 μl) in a multiplate reader (Varioskan Flash, Thermo Scientific) for 48 h that records absorbance (A600) automatically for every 20 min. Growth curves are plotted using GraphPad Prism.

Another data set deals with DAergic neurons in SNpc. As to the kind of experiment: MPTP mouse model: LC3 and A11 puncta in DAergic neurons of SNpc. Format: in vivo. As to conditions: MPTP treated cohort. How it is done: The sequential immunolabeling procedure is used to co-label the TH and LC3 and/or A11. First, the midbrain sections are equilibrated with 0.1 M PBS (pH 7.4) for 10 min and then incubated with buffered bovine serum albumin (3%) for 4 h to block non-specific epitopes. Then, the sections are incubated in rabbit anti-LC3 antibody (1:1000) and/or anti-oligomer antibody (A11, 1:1000) for 72 h at 4° C. After subsequent washes, the sections are incubated in corresponding fluorescent secondary antibody (1:200) at 4° C., overnight.
Co-labeling with TH is performed on the same sections using rabbit anti-TH antibody (1:500), followed by secondary labeling. PBST (0.01 M, pH 7.4) is used as both working and washing buffer. Sections are then mounted using Vectashield hardset mounting medium.

Data set [1] concerns TH+ dopaminergic neurons in SNpc. The data set can be described thus: MPTP mouse model: TH+ dopaminergic neurons in SNpc (stereology, densitometry, volume). Format: in vivo, mice. On the procedure:
As described by Vernice Jackson-Lewis & Serge Przedborski (2007), 23.4 mg/kg MPTP.HCl (equivalent to 20 mg/kg free base) in 10 ml/kg body wt. of saline is administered intraperitoneally (i.p.) for 4 times at 2 h intervals.
All mice are sacrificed 9 days post MPTP administration and brains are processed for immunohistochemistry.
Mice are anaesthetized using Halothane BP (Piramal Healthcare) inhalation and perfused intracardially with normal saline followed by 4% PFA in 0.1 M phosphate buffer, pH 7.4. Brains are removed quickly and post-fixed with 4% PFA for 24 h-48 h at 4° C. Following cryoprotection in 15% and 30% sucrose, 40 μm thick coronal cryosections of midbrain are collected serially on gelatinized slides. Immunoperoxidase labelling protocol as identical to that reported. Briefly, endogenous peroxidase is quenched using H2O2 (0.1%) in methanol (70%), followed by blocking of non-specific staining by buffered solution (3%) of bovine serum albumin for 4 h at room temperature. Sections are incubated with TH primary antibody (1:500) followed by biotin conjugated secondary antibody (1:200 dilution, Vector Laboratories). Tertiary labelling is performed with avidin-biotin complex solution (1:100, Vector Laboratories). Staining is visualized using 3′-3′-diaminobenzidine (0.05%) as a chromogen in a solution of 0.1M acetate imidazole buffer (pH 7.4) and H2O2 (0.1%). Negative controls are processed identically, except that primary antibody is replaced with dilution buffer.
As described by Y. Fu et al., SNpcis delineated using the 4× objective of Olympus BX61 Microscope (Olympus) equipped with Stereo Investigator Software Version 7.2 (MicroBrightField). Stereological quantification is performed using optical fractionator probe with slight modifications(P. A. Alladi et al.). Briefly, every sixth midbrain section containing SNpc is chosen and TH^+ cells are counted under 100× objective, with a regular grid interval of 22500 μm^2 (x=150 μm, y=150 μm) and counting frame with an area of 3600 μm^2 (x=60 μm, y=60 μm) (FIG. 10B). Mounted thickness is determined at every fifth site, averaging to 25 μm. Guard zone 4 μm is applied on either side, thus providing 17 μm of z-dimension within optical dissector. The quantification is performed starting with first anterior appearance of TH^+ neurons in SNpc to caudal most part. The SNpc volume is determined by planimetry (FIG. 10C) and total numbers of neurons according to mean measured thickness are noted.
High magnification images of TH stained nigral DAergic neurons, captured for offline assessment of Tyrosine Hydroxylase (TH) enzyme expression levels=used. Expression intensity is measured using a Windows based image analysis system (Q Win V3, Leica Systems). Cumulative mean is derived from the values obtained from sampling, approximately 200 DAergic neurons per animal. Intensity output is measured on a grey scale of 0-255, where 0 equals intense staining and 255 means absence of staining.
The mice are distributed into three groups' viz., vehicle, MPTP and MPTP+XCT 790 injected respectively. The vehicle group receives intraperitoneal injections of dimethyl sulfoxide (DMSO) injections i.e. the solvent. The MPTP group receives 23.4 mg/kg MPTP.HCl in 10 ml/kg body wt. of saline is administered intraperitoneally for 4 times at 2 h interval. The MPTP+XCT 790 group mice are injected with 5 mg/kg body wt, of XCT 790 dissolved in DMSO, alongside the first MPTP injection. […]

The test system of a further data set is Atg8. As to the kind of experiment: Atg8 immunolocalization in lace plant. Format: cell-based, Aponogeton madagascariensis. As to conditions: two hours; same modulator concentrations as MDC; control 0.90±0.08. How it is done: Whole leaves are treated for two hours prior to fixation in 100% Methanol at 37° C. and then hydrophilized to 20% methanol by adding distilled water at 60° C. every two minutes for 32 minutes. Samples are then sectioned and placed on a multiwall slide and allowed to air dry for 10 minutes to facilitate membrane permeabilization. Blocking is done for 30 minutes at 37° C. with 4% low fat milk powder in 1× microtubule stabilization buffer MTSB (Modified 2× MTSB stock solution: 15 g PIPES, 1.9 g EDTA, 1.22 g MgSO4*7H2O and 2.5 g KOH—pH 7.0). Primary antibody incubation for anti-rabbit ATG8 (Agrisera, AS14 2769) is done at a 1:1000 dilution in 1× MTSB for 30 minutes at 37° C. Samples are then washed for 5 minutes, 3 times with 1× MTSB. Secondary antibody incubation with Goat anti-rabbit Dylight 488 (Agrisera AS09 633) at a 1:2000 dilution in 1× MTSB is done for 30 minutes at 37° C. and then samples are rinsed as above. Tissues are mounted in Mowiol 4-88 solution (Sigma, 81381) and scanned via confocal microscopy as mentioned above. The mean number of puncta per cell is determined using maximum intensity projections (MIPs) for each replicate. The total number of cells within a field of view are counted manually and the number of puncta are counted automatically using ImageJ.

The test system of data set [2] is lace plant (Aponogeton madagascariensis) cells. The data set can be described thus: Lace plant leaf MDC staining of punctate structures. To be noted: 2 hours; 5 μM wortmannin, 50 μM Bay11, 1 μM concanamycin A, rapamycin, 50 μM ZPCK; control 0.99±0.12. Format: cell-based. How it is done:
Axenic lace plant cultures are grown in magenta boxes and prepared according to Gunawardena et al. Leaves in the window stage are removed from the corm and rinsed thoroughly with distilled water prior to being sectioned into 2 mm^2 pieces. For starvation treatments, window stage leaves are removed from the plant, placed in distilled water and kept in the dark overnight.
Leaf sections are stained with monodansylcadaverine (MDC; 300 μM) (Sigma, D4008) and simultaneously treated with autophagy modulators for 2 hours in the dark. (1 hour vacuum infiltration at 15 psi). Treatment times, along with stain and modulator applications are optimized using concentration gradients followed by microscopy. The optimized concentrations are 5 μM rapamycin (Enzo Life Sciences (BML A275-0005), 5 μM wortmannin (Santa Cruz Biotechnology, sc-3505), 1 μM concanamycin A (Santa Cruz Biotechnology, sc-202111), 50 μM Bay 11 (Sigma, B5556) and 50 μM ZPCK (Sigma, 860794).
Tissue sections are then rinsed and mounted in distilled water prior to being scanned using a Nikon Eclipse Ti confocal microscope (Nikon 40X/1.30, Plan Fluor, 405 nm excitation and 450/30 nm emission). Areoles in the early phases of PCD are scanned to avoid cellular debris. The mean number of puncta are quantified for each treatment group with a minimum of four independent experiments using NIS Elements Advanced Research software. Additionally, starvation treatment leaves are also exposed to 5 μM, wortmannin, 50 μM Bay11 and 50 μM ZPCK treatments and then qualitatively assessed via confocal microscopy.

Regarding `N#C/C(=C\c1ccc(-c2cc(Cl)ccc2Cl)o1)C(=O)Nc1cccc2ncccc12` [Agk2, reference compound], the “rescue of growth lag due to α-synuclein toxicity” value in the data set with α-synuclein toxicity is recorded as “rescue growth lag”.

Take `CN1CC=C(c2ccccc2)CC1` [MPTP, methyl-4-phenyl-1,2,3,6-tetrahydropyridine, reference compound]: the “increase of A11 puncta / aggregates, placebo/vehicle vs MPTP” value in the data set on DAergic neurons in SNpc is ~7 fold and ~6.5 fold. Moreover, in data set [1] (MPTP 23 mg/kg), the “reduction in number and health of DA neurons, compared to control” value is approximately 3 fold. Further, the “dopaminergic neurons in SNpc lost, MPTP vs Vehicle” value in data set [1] (MPTP 23.4 mg/kg, 4 times) is approximately 68%.

For `C/C=C/[C@H]1O[C@@](O)([C@@H](C)[C@H](O)[C@H](C)[C@H]2OC(=O)/C(OC)=C/C(C)=C/[C@@H](C)[C@@H](O)[C@@H](CC)[C@@H](O)[C@H](C)C/C(C)=C/C=C/[C@@H]2OC)C[C@@H](O[C@H]2C[C@@H](O)[C@H](OC(N)=O)[C@@H](C)O2)[C@@H]1C` [concanamycin A], the “mean number of Atg8 puncta per cell” value with Atg8 turned out to be 2.43±0.29. For the same compound, the “mean number of punctate structures per cell (MDC)” value (“mean number … per cell (MDC)” for short) in data set [2] came to 1.91±0.13.

In the case of `CO[C@H]1C[C@@H]2CC[C@@H](C)[C@@](O)(O2)C(=O)C(=O)N2CCCC[C@H]2C(=O)O[C@H]([C@H](C)C[C@@H]2CC[C@@H](O)[C@H](OC)C2)CC(=O)[C@H](C)/C=C(\C)[C@@H](O)[C@@H](OC)C(=O)[C@H](C)C[C@H](C)/C=C/C=C/C=C/1C` [rapamycin], the “mean number of Atg8 puncta per cell” value in the data set on Atg8 is 3.52±0.09. Moreover, the “mean number … per cell (MDC)” value in data set [2] was determined as 2.31±0.25.

As for `COC[C@H]1OC(=O)c2coc3c2[C@@]1(C)C1=C(C3=O)[C@@H]2CCC(=O)[C@@]2(C)C[C@H]1OC(C)=O` [wortmannin], the “mean number of Atg8 puncta per cell” value with Atg8 is given as 0.27±0.025. Moreover, the “mean number … per cell (MDC)” value in data set [2] came to 0.26±0.03.
